# Test results taken from patent US20140335083A1, “METHODS OF TREATMENT AND PREVENTION OF EYE DISEASES” (GLAXO GROUP LIMITED, priority 2011, published 2014).
# Columns and labels:
# Type in all cases: in vivo
# [1] = test system: spontaneous CNV in JR5558 mice; test: JR5558 spontaneous CNV model, quantitative immunohistochemistry (isolectin B4 whole-mount); details: 8 mg/kg BID v Vehicle, 12 days P14-P26
# Experimental: JR5558 mice develop CNV (on an atrophic background) spontaneously with CNV lesions first emerging approximately 12 days after birth. JR5558 mice were intraperitoneally treated with various amounts of a rat anti-mouse VEGF receptor (VEGFR)-2 blocking antibody (MAB4431; R&D systems) or a purified rat non-immune isotype match control IgG2α antibody (R&D systems) starting from P14 for a total of 10 doses in 11 days and CNV development was analyzed by fluorescein angiography (FA) 24 hours after the last dose on P25. For Mice treated with CCR3 inhibitor '994 they were dosed intraperitoneally or by eye drop with various concentrations of the drug starting at P14 for a total of 12 days and CNV development was analyzed by FA 24 hours after the last dose on P26. To study the combination effects of anti-VEGFR2 antibody and CCR3 inhibitor '994, mice were treated intraperitoneally with each material alone or in combination starting from P14 for a total of 10 doses in 11 days and CNV development was analyzed by FA 24 hours after the last dose on P25. […]
# When CCR3 inhibitor '994 was dosed BID instead of QD, CCR3 inhibitor '994 also produced a significant effect in limiting both total lesion (see, FIG. 4, Table 5) area and total CNV number (see, FIG. 4, Table 6). […] Eyes were completely washed and then analysed by quantitative immunohistochemistry.
# [2] = test system: retinal neovascularization in C57BL/6 mice; test: Oxygen-induced retinopathy, area of retinal neovascularization; details: hyperbaric oxygen
# Experimental: C57BL/6 mice placed in 75% O2 at postnatal day (P) 7 and at P12 were returned to room air and treatment initiated with compound or vehicle. At P17, the area of retinal NV on the surface of the retina was measured as described previously (Shen et al., 2007). Briefly, P17 mice were given an intraocular injection of 1 μl of rat anti-mouse platelet endothelial cell adhesion molecule-1 (PECAM-1) antibody (Pharmingen, San Jose, Calif., USA); after 12 h, they were euthanized, and eyes were fixed in PBS-buffered formalin for 5 h at room temperature. Retinas were dissected, washed, and incubated with goat-anti rat polyclonal antibody conjugated with Alexa 488 (Invitrogen, Carlsbad, Calif., USA) at 1:500 dilution at room temperature for 45 min and flat mounted. An observer masked with respect to treatment group measured the area of NV per retina by image analysis.
# (see, FIGS. 12 and 13). In systemic experiments both eyes were examined and no significant differences were observed between CCR3 inhibitor '994 and vehicle treated groups. In topical experiments no significant differences were noted between CCR3 inhibitor '994 and vehicle groups nor treated and fellow eye in the CCR3 inhibitor '994 treated group. […] Consequently SU4312 acts similarly on retinal neovascularization to that of an alternative receptor tyrosine kinase inhibitor pazopanib which was effective in limiting choroidal neovascularization.
# [3] = test system: laser-induced CNV in C57BL/6 mice; test: Laser-induced CNV in C57/BL6 mice, fluorescein angiography
# Experimental: Adult 12 weeks old female C57BL/6 mice were used to generate the laser-induced CNV model. Mice were anesthetized by intraperitoneal ketamine hydrochloride (25 mg/kg) and xylazine (10 mg/kg) and their pupils dilated by topical tropicamide 1%. Laser-photocoagulation was performed a diode laser (680 nm; 210 mW power, 100 ms duration, 100 […]) under direct vision using a hand-held cover slide as a contact lens and were localized to the 2, 10, and 6 o'clock positions of the posterior pole of the retina in both eyes. These laser settings consistently generate a subretinal gas bubble which strongly correlates with laser-induced rupture of Bruch's membrane and successful induction of CNV. Only lesions in which a bubble is formed were included in the analysis. Fluorescein angiography using a Kowa Genesis small animal fundus camera was conducted at 1 week and 2 weeks following induction of CNV. The size of CNV lesions were quantified by digital image analysis the mean area of hyperfluorescence per lesion during the early phase (90 seconds post fluorescein injection). The pupils were dilated by topical tropicamide 1% and fluorescein sodium 2% administered by intraperitoneal injection (0.2 ml). Eyes were excluded if there was significant cataract or keratopathy that could affect laser energy delivery or angiography.
# Adult 12 weeks old female C57BL/6 mice were used to generate the laser-induced CNV (3 CNV lesions per mouse retina) model using laser photocoagulation and puncture of Bruch's membrane.
# The statistical analysis conducted here is stringent in that number of observations are related to the number of animals treated whereas in most other studies (conducted in the wider literature) using this laser-induced model each lesion (3 CNV lesions per mouse retina) are regarded as independent observations. […] However it is clear that in the case of orally dosed pazopanib either statistical approach would have yielded a robust effect or as such the effect of CCR3 inhibitor '994 in this model appears weaker than orally dosed pazopanib.
smiles,measurement,setting,value
"NC(=O)c1ccc(CNC(=O)NC[C@H]2CN(Cc3ccc(Cl)c(Cl)c3)CCO2)cc1 [CCR3 inhibitor '994, 4-[[[[[[(2s)-4-[(3,4-dichlorophenyl)methyl]-2-morpholinyl]methyl]-amino]carbonyl]-amino]methyl]benzamide]",Difference in mean number of CNV lesions per eye,[1],−8.00
same,Difference in mean total CNV area per eye,[1],−76632
same,effect on neovascularization of retinal vessels,[2]; systemic 8 mg/kg BID i.p.,did not have an effect
same,effect on neovascularization of retinal vessels,[2]; topically 5 ul 10 mg/ml BID,did not have an effect
same,Ratio of mean lesion sizes,"[3]; Table 1 study, 8 mg/kg po QD v Vehicle, Week 1",0.82
same,Ratio of mean lesion sizes,"[3]; Table 1 study, 8 mg/kg po QD v Vehicle, Week 2",0.99
same,Ratio of mean lesion sizes,"[3]; Table 1 study, 30 mg/kg '994 v 20 mg/kg Pazopanib, Week 1",1.47
same,Ratio of mean lesion sizes,"[3]; Table 1 study, 30 mg/kg '994 v 20 mg/kg Pazopanib, Week 2",2.03
same,Ratio of mean lesion sizes,"[3]; Table 1 study, 30 mg/kg po QD v Vehicle, Week 1",0.70
same,Ratio of mean lesion sizes,"[3]; Table 1 study, 30 mg/kg po QD v Vehicle, Week 2",0.78
same,Ratio of mean lesion sizes,"[3]; Table 2 (second) study, 2 mg/kg po QD v Vehicle, Week 1",0.93
same,Ratio of mean lesion sizes,"[3]; Table 2 (second) study, 2 mg/kg po QD v Vehicle, Week 2",0.83
same,Ratio of mean lesion sizes,"[3]; Table 2 (second) study, 8 mg/kg BID po v Vehicle, Week 1",0.80
same,Ratio of mean lesion sizes,"[3]; Table 2 (second) study, 8 mg/kg BID po v Vehicle, Week 2",0.65
same,Ratio of mean lesion sizes,"[3]; Table 2 (second) study, 8 mg/kg po QD v Vehicle, Week 1",0.81
same,Ratio of mean lesion sizes,"[3]; Table 2 (second) study, 8 mg/kg po QD v Vehicle, Week 2",0.66
same,Ratio of mean lesion sizes,"[3]; Table 2 (second) study, 30 mg/kg '994 v 20 mg/kg Pazopanib, Week 1",2.05
same,Ratio of mean lesion sizes,"[3]; Table 2 (second) study, 30 mg/kg '994 v 20 mg/kg Pazopanib, Week 2",2.16
same,Ratio of mean lesion sizes,"[3]; Table 2 (second) study, 30 mg/kg po QD v Vehicle, Week 1",0.62
same,Ratio of mean lesion sizes,"[3]; Table 2 (second) study, 30 mg/kg po QD v Vehicle, Week 2",0.56
